Laboratory results as given in PMC6152180, “Design, Synthesis and Evaluation of Hesperetin Derivatives as Potential Multifunctional Anti-Alzheimer Agents” (Molecules : A Journal of Synthetic Chemistry and Natural …, 2017).
Like-named read-outs stand apart in the source and are kept apart here.

Columns and labels:
[1] = Oxygen radical absorbance capacity-fluorescein (ORAC-FL) assay; settings: Trolox equivalents, Trolox = 1
Description: Vitamin E analogue Trolox was used as the standard, and the results were expressed as Trolox equivalents.
The anti-oxidation activity was tested by using the oxygen radical absorbance capacity-fluorescein (ORAC-FL) assay [25, 32]. All the ORAC-assays measure antioxidant scavenging activity against peroxyl radical induced by 2,2′-azobis (2-amidinopropane) dihydrochloride (AAPH) at 37 °C.
The reaction was conducted with 75 mM phosphate buffer (pH 7.4) and the final reaction mixture was 200 μL. Fluorescein (120 μL, 300 nM final concentration) and antioxidant (20 μL) were placed in the wells of a black 96-well plate, and the mixture was incubated for 15 min at 37 °C. Then AAPH solution (60 μL, 12 mM final concentration) was added rapidly. […] 6-hydroxy-2,5,7,8-tetramethylchroman-2-carboxylic acid (Trolox) was used as a standard (1–5 μM, final concentration). A blank (FL + AAPH) using phosphate buffer instead of antioxidant and Trolox calibration were carried out in each assay. The samples were measured at different concentrations (1–5 μM), and at least three independent assays were performed for each sample. Fluorescence measurements were normalized based on the curve of the blank (without antioxidant). Antioxidant curves (fluorescence versus time) were normalized to the curve of the blank in the same assay, and then the area under the fluorescence decay curve (AUC) was calculated. The net AUC of a sample was obtained by subtracting the AUC from the blank. ORAC-FL values were expressed as Trolox equivalents by using the standard curve calculated for each sample, where the ORAC-FL value of Trolox was taken as one, indicating the antioxidant potency of the test compounds.

BuChE = molecular target: T1, BuChE (Equus caballus, UniProt P81908); assay: biochemical
T1 construct: purchased Aladdin B128570-2KU; host or cells: equine serum
Description: (§1) Acetylcholinesterase (AChE, E.C. 3.1.1.7, obtained from electric eel) was purchased from Sigma-Aldrich (St. Louis, MO, USA, product code: C3389-2KU). Butyrylcholinesterase (BuChE, E.C. 3.1.1.8, obtained from equine serum) was purchased from Aladdin (Shanghai, China, product code: B128570-2KU). […] The compounds were dissolved in a minimum volume of DMSO (1%) and then diluted in 0.1 M KH2PO4/K2HPO4 buffer (pH 8.0) to provide a final concentration range.
(§2) Enzyme solutions were prepared to give 2.0 units/ mL in 2 mL aliquots. The assay medium contained phosphate buffer, pH 8.0 (1 mL), 50 μL of 0.01 M DTNB, 10 μL of enzyme, and 50 μL of 0.01 M substrate (ATC). The substrate was added to the assay medium containing enzyme, buffer, and DTNB with inhibitor after 15 min of incubation time. […] In vitro BuChE assay used the similar method described above [31]. Each concentration was assayed in triplicate.

AChE = molecular target: T2, AChE (Electrophorus electricus, UniProt O42275); assay: biochemical; settings: for Selective Index: Selectivity Index = IC50 (BuChE)/IC50 (AChE)
T2 construct: purchased Sigma-Aldrich C3389-2KU
Description: as §1, §2

in vitro = settings: human
Description: Thus, we used the methylthiazolyl tetrazolium (MTT) method [30] to perform a neurocyte (SH-SY5Y) toxicity test in vitro.
The SH-SY5Y cell line was seeded on 96-well plates at a density of 10^4 cells/well. […] Subsequently, 10 μL of 5 mg/mL MTT solution was added to each well and further incubated for 4 h at 37 °C. The solution was carefully removed, and each well was treated with DMSO (200 μL for each well). The optical density of the wells was then read on the microplate reader at 570 nm. All the tested compounds were performed in triplicate.

[2] = BuChE from equine serum, means ± SEM of three experiments, read-out: BuChE Inhibition, (IC50)
[3] = AChE from electric eel, means ± SEM of three experiments, read-out: AchE Inhibition, (IC50)

T1 sequence (P81908 whole entry): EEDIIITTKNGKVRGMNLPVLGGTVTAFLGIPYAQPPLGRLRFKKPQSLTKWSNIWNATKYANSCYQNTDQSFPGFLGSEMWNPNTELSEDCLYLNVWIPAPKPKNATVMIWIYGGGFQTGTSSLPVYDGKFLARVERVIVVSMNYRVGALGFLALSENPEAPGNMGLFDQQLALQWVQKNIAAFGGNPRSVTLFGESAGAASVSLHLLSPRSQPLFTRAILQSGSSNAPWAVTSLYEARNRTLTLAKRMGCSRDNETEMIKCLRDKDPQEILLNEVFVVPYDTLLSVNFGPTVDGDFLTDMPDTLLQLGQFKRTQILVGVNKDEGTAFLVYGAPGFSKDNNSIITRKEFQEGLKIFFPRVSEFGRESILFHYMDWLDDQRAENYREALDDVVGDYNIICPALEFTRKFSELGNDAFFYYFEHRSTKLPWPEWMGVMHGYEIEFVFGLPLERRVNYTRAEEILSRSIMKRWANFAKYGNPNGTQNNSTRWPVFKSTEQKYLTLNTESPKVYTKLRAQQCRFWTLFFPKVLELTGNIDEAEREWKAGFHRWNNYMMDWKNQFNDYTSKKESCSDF
T2 sequence (O42275 24-633): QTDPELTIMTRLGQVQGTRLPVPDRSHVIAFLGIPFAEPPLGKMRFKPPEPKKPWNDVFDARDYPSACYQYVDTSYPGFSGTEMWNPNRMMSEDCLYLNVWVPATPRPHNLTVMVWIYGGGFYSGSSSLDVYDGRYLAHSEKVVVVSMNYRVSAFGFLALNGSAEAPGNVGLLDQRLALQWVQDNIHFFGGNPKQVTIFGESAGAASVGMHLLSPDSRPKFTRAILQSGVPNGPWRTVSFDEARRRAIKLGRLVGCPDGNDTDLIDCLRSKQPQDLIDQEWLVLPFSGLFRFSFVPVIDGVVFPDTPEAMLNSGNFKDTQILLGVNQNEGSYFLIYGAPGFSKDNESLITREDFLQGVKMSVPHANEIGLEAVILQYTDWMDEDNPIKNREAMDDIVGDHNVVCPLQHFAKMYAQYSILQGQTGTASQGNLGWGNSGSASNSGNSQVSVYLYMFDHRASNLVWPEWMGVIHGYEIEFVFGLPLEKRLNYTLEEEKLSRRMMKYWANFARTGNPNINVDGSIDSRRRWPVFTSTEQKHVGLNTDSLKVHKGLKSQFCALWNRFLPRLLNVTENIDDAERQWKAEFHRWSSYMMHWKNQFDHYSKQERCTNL

Structure (SMILES) | ORAC [1] | IC50 (BuChE; [2]) [nM] | IC50 (AChE; [3]) [nM] | Selective Index (AChE) | viability at 48 h, 1 µM (in vitro) [%] | viability at 48 h, 10 µM (in vitro) [%] | viability at 48 h, 50 µM (in vitro) [%] | viability at 48 h, 100 µM (in vitro) [%] | IC50 (BuChE) [nM] | IC50 (AChE) [nM]
Nc1c2c(nc3ccccc13)CCCC2 [Tacrine, tacrine, reference compound] | <0.1 μM of Trolox equivalent/μMof tested compound |  |  |  |  |  |  |  |  | 
COc1ccc(C2CC(=O)c3c(O)cc(OCC(=O)NCCc4cccc(Cl)c4)cc3O2)cc1O (centres unmarked) [Compound 4r, N-[2-(3-Chlorophenyl)ethyl]-2-[5-hydroxy-2-(3-hydroxy-4-methoxyphenyl)-4-oxo-chroman-7-yloxy]acetamide] | 2.8 μM of Trolox equivalent/μMof tested compound | 3030 ± 84 | 16.1 ± 0.79 | 188 | 98.9 ± 5.2 | 95.8 ± 6.29 | 83.8 ± 4.24 | 62.2 ± 4.18 |  | 
COc1ccc(C2CC(=O)c3c(O)cc(OCC(=O)NCCc4ccccc4)cc3O2)cc1O (centres unmarked) [Compound 4k, 2-[5-Hydroxy-2-(3-hydroxy-4-methoxyphenyl)-4-oxochroman-7-yloxy]-N-phenethyl-acetamide] | 2.7 μM of Trolox equivalent/μMof tested compound | 3010 ± 74 | 11.9 ± 1.12 | 254 | 98.9 ± 6.3 | 96.5 ± 2.98 | 81 ± 3.22 | 68.5 ± 4.92 |  | 
COc1ccc(C2CC(=O)c3c(O)cc(OCC(=O)NCc4ccc(F)cc4)cc3O2)cc1O (centres unmarked) [Compound 4c, N-(4-Fluorobenzyl)-2-[5-hydroxy-2-(3-hydroxy-4-methoxyphenyl)-4-oxochroman-7-yloxy]-acetamide] | 2.9 μM of Trolox equivalent/μMof tested compound | 2080 ± 76 | 12.4 ± 0.81 | 167 | 98.5 ± 4.98 | 97.5 ± 3.76 | 83.8 ± 2.32 | 58.8 ± 3.97 |  | 
COc1ccc(C2CC(=O)c3c(O)cc(OCC(=O)NCc4ccccc4F)cc3O2)cc1O (centres unmarked) [Compound 4h, N-(2-Fluorobenzyl)-2-[5-hydroxy-2-(3-hydroxy-4-methoxyphenyl)-4-oxochroman-7-yloxy]-acetamide] | 2.5 μM of Trolox equivalent/μMof tested compound | 2800 ± 39 | 15.2 ± 2.03 | 184 | 100 ± 6.52 | 98.8 ± 5.38 | 75.8 ± 3.83 | 60.6 ± 4.27 |  | 
COc1ccc(C2CC(=O)c3c(O)cc(OCC(=O)NCc4ccccc4OC)cc3O2)cc1O (centres unmarked) [Compound 4i, 2-[5-Hydroxy-2-(3-hydroxy-4-methoxyphenyl)-4-oxochroman-7-yloxy]-N-(2-methoxy-benzyl)acetamide] | 2.7 μM of Trolox equivalent/μMof tested compound | 1990 ± 134 | 19.2 ± 0.66 | 103 | 97.8 ± 6.32 | 96.7 ± 5.21 | 75 ± 4.12 | 55 ± 5.69 |  | 
COc1cc(/C=C/C(=O)CC(=O)/C=C/c2ccc(O)c(OC)c2)ccc1O [Curcumin, curcumin, reference compound] |  |  |  |  | 95.3 ± 5.21 | 90.9 ± 4.31 | 82.1 ± 3.07 | 71.8 ± 4.21 |  | 
COc1ccc(CNC(=O)COc2cc(O)c3c(c2)OC(c2ccc(OC)c(O)c2)CC3=O)cc1 (centres unmarked) [Compound 4e, 2-[5-Hydroxy-2-(3-hydroxy-4-methoxyphenyl)-4-oxochroman-7-yloxy]-N-(4-methoxy-benzyl)acetamide] | 2.8 μM of Trolox equivalent/μMof tested compound | 3210 ± 92 | 17.9 | 179 | 105 ± 3.87 | 98.3 ± 5.27 | 87.1 ± 6.37 | 66.5 ± 4.95 |  | 
COc1ccc(C2CC(=O)c3c(O)cc(OCC(=O)NCCc4ccc(Cl)cc4)cc3O2)cc1O (centres unmarked) [Compound 4m, N-[2-(4-Chlorophenyl)ethyl]-2-[5-hydroxy-2-(3-hydroxy-4-methoxyphenyl)-4-oxo-chroman-7-yloxy]acetamide] | 2.6 μM of Trolox equivalent/μMof tested compound | 3350 ± 66 | 15.7 ± 0.85 | 214 | 102 ± 6.65 | 97.3 ± 5.21 | 81.5 ± 4.01 | 64.5 ± 4.32 |  | 
COc1ccc(C2CC(=O)c3c(O)cc(OCC(=O)NCc4ccccc4Cl)cc3O2)cc1O (centres unmarked) [Compound 4g, N-(2-Chlorobenzyl)-2-[5-hydroxy-2-(3-hydroxy-4-methoxyphenyl)-4-oxochroman-7-yloxy]acetamide] |  | 1630 ± 78 | 14 ± 0.95 | 116 | 97.8 ± 6.83 | 95.7 ± 5.67 | 79.3 ± 4.33 | 70.8 ± 5.32 |  | 
COc1ccc(C2CC(=O)c3c(O)cc(OCC(=O)NCc4ccc(Cl)cc4)cc3O2)cc1O (centres unmarked) [Compound 4b, N-(4-Chlorobenzyl)-2-[5-hydroxy-2-(3-hydroxy-4-methoxyphenyl)-4-oxochroman-7-yloxy]-acetamide] | 2.7 μM of Trolox equivalent/μMof tested compound | 3500 ± 66 | 13.6 ± 0.78 | 258 | 103 ± 4.56 | 95.9 ± 3.98 | 83.7 ± 4.12 | 65.4 ± 5.33 |  | 
COc1cccc(CNC(=O)COc2cc(O)c3c(c2)OC(c2ccc(OC)c(O)c2)CC3=O)c1 (centres unmarked) [Compound 4j, 2-[5-Hydroxy-2-(3-hydroxy-4-methoxyphenyl)-4-oxochroman-7-yloxy]-N-(3-methoxy-benzyl)acetamide] | 3.1 μM of Trolox equivalent/μMof tested compound | 2460 ± 83 | 22.3 ± 1.54 | 110 | 103 ± 6.47 | 98.2 ± 7.01 | 84.2 ± 3.2 | 70.8 ± 5.36 |  | 
COc1ccc(CCNC(=O)COc2cc(O)c3c(c2)OC(c2ccc(OC)c(O)c2)CC3=O)cc1 (centres unmarked) [Compound 4l, 2-[5-Hydroxy-2-(3-hydroxy-4-methoxyphenyl)-4-oxochroman-7-yloxy]-N-[2-(4-methoxy-phenyl)ethyl]acetamide] | 2.9 μM of Trolox equivalent/μMof tested compound | 2790 ± 53 | 19.5 ± 0.77 | 143 | 98.9 ± 4.07 | 94.5 ± 5.32 | 78.5 ± 3.21 | 63.2 ± 5.04 |  | 
COc1ccc([C@@H]2CC(=O)c3c(O)cc(O)cc3O2)cc1O [Hesperetin, hesperetin] |  |  |  | 3 | 99 ± 5.87 | 93 ± 4.33 | 85.2 ± 3.43 | 67.3 ± 5.21 | 2900 ± 67 | 1020 ± 37
COc1ccc(C2CC(=O)c3c(O)cc(OCC(=O)NCCc4ccc(F)cc4)cc3O2)cc1O (centres unmarked) [Compound 4o, N-[2-(4-Fluorophenyl)ethyl]-2-[5-hydroxy-2-(3-hydroxy-4-methoxyphenyl)-4-oxochroman-7-yloxy]-acetamide] |  | 2260 ± 81 | 13.5 ± 1.44 | 167 | 101 ± 6.31 | 97.2 ± 5.09 | 81.7 ± 3.52 | 59.7 ± 6.14 |  | 
COc1ccc(C2CC(=O)c3c(O)cc(OCC(=O)NCCc4ccccc4F)cc3O2)cc1O (centres unmarked) [Compound 4q, N-[2-(2-Fluorophenyl)ethyl]-2-[5-hydroxy-2-(3-hydroxy-4-methoxyphenyl)-4-oxochroman-7-yloxy]-acetamide] | 2.5 μM of Trolox equivalent/μMof tested compound | 2240 ± 77 | 20.2 ± 1.88 | 111 | 99 ± 5.28 | 92 ± 6.41 | 85.6 ± 3.95 | 66.5 ± 3.81 |  | 
COc1ccc(C2CC(=O)c3c(O)cc(OCC(=O)NCCc4ccc(Br)cc4)cc3O2)cc1O (centres unmarked) [Compound 4n, N-[2-(4-Bromophenyl)ethyl]-2-[5-hydroxy-2-(3-hydroxy-4-methoxyphenyl)-4-oxo-chroman-7-yloxy]acetamide] | 2.4 μM of Trolox equivalent/μMof tested compound | 1990 ± 51 | 17.2 ± 0.96 | 115 | 99.8 ± 3.89 | 96.5 ± 4.24 | 78.8 ± 5.21 | 55.6 ± 5.34 |  | 
